Experimental data: publication PMC11996864, “A small-molecule inhibitor of BCL10-MALT1 interaction abrogates progression of diffuse large B cell lymphoma” (The Journal of Clinical Investigation, 2025)
Where “and” joins values, the source holds several entries; their conditions need not be identical. Equal values may be shown once.

Experiments:
Format in all cases: cell-based, human
[1] = tested on: IL2 mRNA in Jurkat T cells; assay: IL2 mRNA induction by PMA/Iono, qRT-PCR; conditions: for IL2 mRNA (normalized): Jurkat, + PMA/Iono; for PMA/Iono-induced IL2 gene expression: pretreatment 4 hours, result in words
Description: qRT-PCR. Jurkat T cells grown in serum free media for 4 hours with indicated inhibitors prior to stimulation with PMA/Ionomycin for 4 hours. […]
Total RNA extraction from the […]
Kit. RNA was transcribed into cDNA using High-Capacity cDNA Reverse Transcription Kit (Applied Biosystems, Cat# 4368814) according to manufacturer’s instructions. RT-PCR was performed using TaqMan Universal PCR Master Mix (Applied Biosystems, Cat# 4304437) and run on a StepOnePlus Real-Time PCR machine (Applied Biosystems). The following probes from ThermoFisher Scientific were used for qRT-PCR: IL2 TaqMan probe Hs00174114, IL6 TaqMan

[2] = tested on: RelB cleavage in Jurkat T cells; assay: CD3/CD28-induced RelB cleavage, Western blot (MALT1 protease activity); conditions: for RelB cleavage in stimulated Jurkat T cells: result in words
Description: (§1) Western blot analysis of RelB and N4BP1 cleavage was used to test the effect of small molecules on MALT1 protease activity. To this end, 3 million Jurkat T cells were pretreated with compounds for 24 hours in serum-free media, and then 5 μM MG-132 was added for 1 hour before stimulation with CD3/CD28 (Stemcell Technologies, catalog 10971), and lysed in RIPA buffer (Millipore, catalog 20-188) with protease and phosphatase inhibitor cocktail (Pierce, catalog 78446). IKKα/β phosphorylation and IκBα phosphorylation were used as measures of MALT1 scaffolding activity, while ERK1/2 phosphorylation was used as a control. Two million Jurkat T cells were treated with 1 μM M1i-124, 1 μM M1i-124d1, or DMSO in serum-free media for 16 hours, stimulated with CD3/CD28 for 0, 5, 10, or 20 minutes, and then immediately lysed in RIPA buffer with protease and phosphatase inhibitors. For experiments evaluating RelB cleavage and phosphorylation of IκBα in TMD8 cells, cells were treated with compounds for 24 hours in media containing 5% FBS. For RelB Western blot analysis, 5 μM MG-132 (Cell Signaling Technology, catalog 2194s) was added 4 hours before lysis in RIPA lysis buffer with protease/phosphatase inhibitors.

OCI-Ly1 cells = assay: Cell proliferation, trypan blue cell count; conditions: for OCI-Ly1 Viable Cells: Mepazine at 1 µM; for expansion of culture (proliferation): OCI-Ly1, single 1 μM dose, 12 days, result in words
Excerpt: (§2) Cell proliferation, viability, and apoptosis assays. Starting with ~20,000 DLBCL cells in 5% FBS
(§3) at day 0, cell number was counted using the trypan blue dye exclusion method with Vi-CELL cell

OCI-Ly7 cells = assay: Cell proliferation, trypan blue cell count; conditions: for expansion of culture (proliferation): OCI-Ly7, single 1 μM dose, 12 days, result in words; for Viable cell count: second block headed OCI-Ly1, Day 0, Mepazine at 1 µM
Excerpt: as §2, §3

TMD8 cells = assay: Cell proliferation, trypan blue cell count; conditions: for TMD8 Viable Cells: Mepazine at 1 µM; for expansion of culture (proliferation): TMD8, single 1 μM dose, 12 days, result in words
Excerpt: as §2, §3

[3] = tested on: BCL10 and MALT1 protein in TMD8 cells; assay: BCL10 and MALT1 protein levels, Western blot; conditions: 72 hours, result in words; for BCL10 and MALT1 protein levels: TMD8, 1 μM
Description: (§4) To test the possibility that M1i-124 destabilizes BCL10 and MALT1 within the cell as a consequence of disrupting BCL10-MALT1 interaction, we treated ABC-DLBCL cell lines (TMD8, OCI-Ly3) with M1i-124 for 72 hours and measured the cellular levels of the BCL10 and MALT1 proteins by Western blotting.
(§5) Figure 5 M1i-124 treatment leads to loss of BCL10 and MALT1 protein content in ABC-DLBCL cells. (A) Representative Western blots showing loss of BCL10 and MALT1 proteins, but not ERK1/2 protein, in TMD8 and OCI-Ly3 cells after 72 hours of treatment with 1 μM M1i-124. […] (B) Representative Western blots showing time-dependent loss of BCL10 and MALT1 in TMD8 cells treated with 1 μM M1i-124. (C) Representative Western blots showing dose-dependent loss of BCL10 and MALT1 proteins in TMD8 cells treated with […]. For A–C, band quantifications, normalized for GAPDH, are indicated below each blot. (D) Time-dependent change in BCL10 and MALT1 mRNA expression levels with 1 μM M1i-124 treatment in TMD8 cells. Statistical analysis was performed using unpaired t test between 0 hours and 72 hours (mean ± SEM; n = 3). *P < 0.05, ****P < 0.0001.

[4] = tested on: BCL10 and MALT1 protein in OCI-Ly3 cells; assay: BCL10 and MALT1 protein levels, Western blot; conditions: OCI-Ly3, 1 μM, 72 hours, result in words
Description: as §4, §5

[5] = tested on: N4BP1 cleavage in Jurkat T cells; assay: CD3/CD28-induced N4BP1 cleavage, Western blot (MALT1 protease activity); conditions: for N4BP1 cleavage in stimulated Jurkat T cells: result in words; for N4BP1 cleavage ratio: Jurkat T cells, 1 μM pretreatment, + CD3/CD28
Description: as §1

OCI-Ly3 cells = assay: Cell proliferation, trypan blue cell count; conditions: Mepazine at 1 µM
[6] = tested on: IL-2 secretion from Jurkat T cells; assay: Secreted IL-2 ELISA after PMA/Iono; conditions: for IL-2: PMA/Iono; for IL-2 secretion from Jurkat T cells: result in words
Description: Cytokine ELISAs. Cytokines in cell culture supernatants were measured 20-24h after treatment with 0, 0.01, 0.03, 0.1, 0.3, 1, or 3 µM of compounds using the following ELISA kits according to the manufacturer’s instructions: Human IL-2 ELISA (BioLegend Cat# 431804), Human IL-6 ELISA (BioLegend Cat# 430504), and Human IL-10 ELISA (BioLegend Cat# 430604). […]
Jurkat T cells were pretreated with specific doses of compounds for 8 hours in serum-free media, then stimulated with PMA/ionomycin for 16 hours prior to the collection of supernatants. […]

SMILES | IL2 mRNA (normalized) ([1]; 1 μM) | PMA/Iono-induced IL2 gene expression [1] | RelB cleavage in stimulated Jurkat T cells [2] | OCI-Ly1 Viable Cells (OCI-Ly1 cells; Day 0) | expansion of culture (proliferation) (OCI-Ly1 cells) | expansion of culture (proliferation) (OCI-Ly7 cells) | Viable cell count (OCI-Ly7 cells) | TMD8 Viable Cells (TMD8 cells; Day 0) | expansion of culture (proliferation) (TMD8 cells) | BCL10 and MALT1 protein levels [3] | BCL10 and MALT1 protein levels [4] | N4BP1 cleavage in stimulated Jurkat T cells [5] | OCI-Ly3 Viable Cells (OCI-Ly3 cells; Day 0) | IL-2 ([6]; Jurkat, 0.01uM) | IL-2 ([6]; Jurkat, 0.03uM) | IL-2 ([6]; Jurkat, 0.1uM) | IL-2 ([6]; Jurkat, 0.3uM) | IL-2 ([6]; Jurkat, 1uM) | IL-2 ([6]; Jurkat, 3uM) | IL-2 secretion from Jurkat T cells [6] | also measured
O=S(=O)(NCc1ccc2c(c1)OCO2)c1ccc(Cc2ccc(S(=O)(=O)NCc3ccc4c(c3)OCO4)cc2)cc1 [M1i-124] | 0.1638 and 0.218 and 0.2454 | reduction in PMA/Iono–induced IL2 gene expression | suppressed the cleavage | 40000 and 20000 | no effect on expansion | no effect on expansion | 20000 and 40000 | 20000 | significant reduction in the expansion | potently induced the loss of both MALT1 and BCL10 proteins | potently induced the loss of both MALT1 and BCL10 proteins | suppressed the cleavage | 20000 | 670.787 pg/mL and 749.967 pg/mL and 766.89 pg/mL | 564.302 pg/mL and 507.452 pg/mL and 318.494 pg/mL | 327.873 pg/mL and 411.405 pg/mL and 266.705 pg/mL | 173.693 pg/mL and 247.879 pg/mL and 193.913 pg/mL | 222.117 pg/mL and 210.011 pg/mL and 120.037 pg/mL | 304.615 pg/mL and 288.86 pg/mL and 235.369 pg/mL | dose-dependent reduction in IL-2 secretion | OCI-Ly1 Viable Cells (OCI-Ly1 cells; Day 12): 590000 and 720000 and 910000 and 860000 and 880000 and 890000; ERK1/2 protein levels ([3]; 1 μM): no change; IL-2 protein level (% of control) ([6]; PMA/Iono treated, Suppl Fig. 4A): 34.6066 % of control and 35.497 % of control and 25.5648 % of control
COc1ccc(CNS(=O)(=O)c2ccc(Cc3ccc(S(=O)(=O)NCc4ccc(OC)cc4)cc3)cc2)cc1 [M1i-124d1] | 0.5238 and 0.3763 and 0.462 | reduction in PMA/Iono–induced IL2 gene expression | suppressed the cleavage | 40000 and 20000 | no effect on expansion | no effect on expansion | 20000 and 40000 | 20000 | significant reduction in the expansion | lesser effect | lesser effect | suppressed the cleavage | 20000 | 893.077 pg/mL and 1049.97 pg/mL and 735.049 pg/mL | 736.84 pg/mL and 714.598 pg/mL and 588.162 pg/mL | 433.515 pg/mL and 416.061 pg/mL and 330.961 pg/mL | 349.469 pg/mL and 340.243 pg/mL and 270.034 pg/mL | 458.584 pg/mL and 443.361 pg/mL and 398.637 pg/mL | 550.731 pg/mL and 484.757 pg/mL and 435.445 pg/mL | dose-dependent reduction in IL-2 secretion | N4BP1 cleavage ratio [5]: 0.7459 and 0.3808 and 0.4872 and 0.5302; OCI-Ly3 Viable Cells (OCI-Ly3 cells; Day 12): 340000 and 290000 and 320000
CN1CCCC(CN2c3ccccc3Sc3ccccc32)C1 (centres unmarked) [Mepazine, mepazine, reference compound] |  |  |  | 40000 and 20000 |  |  | 20000 | 20000 |  | not observed | not observed |  | 20000 |  |  |  |  |  |  |  | IL2 mRNA (normalized) ([1]; 5 μM): 0.1528 and 0.1464 and 0.1468; Cl-RelB/FL-RelB ratio ([2]; Jurkat T cells, 1 μM pretreatment, + CD3/CD28): 0.1288 and 0.1917 and 0.1562 and 0.1166; OCI-Ly1 Viable Cells (OCI-Ly1 cells; Day 7): 99000 and 98000 and 71000; OCI-Ly1 Viable Cells (OCI-Ly1 cells; Day 10): 280000 and 250000 and 290000; TMD8 Viable Cells (TMD8 cells; Day 12): 830000 and 460000 and 590000; N4BP1 cleavage ratio [5]: 1.53 and 0.8223 and 0.868 and 0.8072; activity at 1 µM ([6]; Homo sapiens, Jurkat, PMA/Iono treated, 1 uM, Suppl Fig. 4A, read-out: IL-2 protein level (% of control)): 67.8%; IL-2 protein level (% of control) ([6]; PMA/Iono treated, 1 uM, Suppl Fig. 4A): 72.9318 % of control and 62.9989 % of control
